In patent US20220016102A1, “ER PROTEIN REGULATORS AND USE THEREOF” (ShanghaiTech University, priority 2018, published 2022):
pIC50: −log10 of the molar value.

Assays:
Type in all cases: cell-based
ER protein [1] = molecular target: T1, ER protein (Homo sapiens, UniProt P03372); assay: Western blotting analysis of ER protein degradation in MCF-7 cell line; set-up: western blotting detection of the level of intracellular ER protein; endogenous in cells; details: MCF-7 cells, Western blot gray values vs DMSO control
T1 sequence (P03372 1-595): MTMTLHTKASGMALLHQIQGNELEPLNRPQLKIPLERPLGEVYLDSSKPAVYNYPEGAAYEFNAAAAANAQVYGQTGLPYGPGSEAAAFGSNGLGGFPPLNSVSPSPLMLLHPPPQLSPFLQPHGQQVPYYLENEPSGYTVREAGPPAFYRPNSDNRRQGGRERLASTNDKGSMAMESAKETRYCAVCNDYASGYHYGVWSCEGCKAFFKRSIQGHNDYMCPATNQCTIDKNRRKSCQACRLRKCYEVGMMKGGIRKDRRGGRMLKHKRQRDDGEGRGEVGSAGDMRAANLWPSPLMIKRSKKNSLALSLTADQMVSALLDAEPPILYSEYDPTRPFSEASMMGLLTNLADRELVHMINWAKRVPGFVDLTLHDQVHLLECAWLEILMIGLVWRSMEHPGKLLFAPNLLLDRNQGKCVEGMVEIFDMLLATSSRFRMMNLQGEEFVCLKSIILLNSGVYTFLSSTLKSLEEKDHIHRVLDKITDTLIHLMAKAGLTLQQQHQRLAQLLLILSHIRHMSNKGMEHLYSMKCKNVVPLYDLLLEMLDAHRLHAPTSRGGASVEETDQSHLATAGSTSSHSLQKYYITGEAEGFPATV
Method: MCF-7 were cultured in ncubator with 5% CO2 at 37° C. Complete medium was EMEM supplemented with 10% FBS, 100 U/mL Penicillin and Streptomycin, and 0.77 μg/mL recombinant human insulin. […]
DC50 value (the drug concentration required for degrading proteins by 50%, abbreviated as DC50) reads method: comparing the gray values of the Western blotting bands for the drug treatment with the gray values of the Western blotting band for the DMSO control, and reading the drug concentration range corresponding to the gray value of the Western blotting bands for the drug treatment which is equal to half of the gray value of the Western blotting band for the DMSO control.
DC50 value could also be calculated as follows: using software ImageJ to quantify the gray values of the Western blotting bands for the drug treatment, fitting the relationship curve between drug concentrations and gray values, and from the fitted curve, calculating the drug concentration corresponding to half of the gray value of the Western blotting band for the DMSO control.

MCF-7 cell line = assay: Assay for determination of inhibition of MCF-7 cell proliferation (CCK-8); details: Homo sapiens, MCF7, 96 h; MCF-7 cells, 4 days, CCK-8, FIG. 3
Method: MCF-7 were cultured in ncubator with 5% CO2 at 37° C. Complete medium was EMEM supplemented with 10% FBS, 100 U/mL Penicillin and Streptomycin, and 0.77 μg/mL recombinant human insulin.
10 μL CCK-8 reagent was added to the test well without adding the drugs, and after 4 h the O.D.value of the test well was recorded as the initial cell level. • After 4 days, 10 μL CCK-8 reagent was added, and the O.D.values was measured, and inhibition level was calculated.

ER protein [2] = molecular target: T1, ER protein; assay: Western blotting analysis of ER protein degradation in T47D cell line; set-up: western blotting detection of the level of intracellular ER protein; endogenous in cells; host or cells: T47D; details: degradation of ER protein, T47D cells, drug treatment for 16 hours, Western blot gray values vs DMSO control; read-out: DC50 (nM)/T47Dcell line
Method in brief: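 T47D cells seeded at 1.5×10^5 cells/mL, adhered 24 h, then treated with compound; ER protein level read by Western blot band gray value versus DMSO control. DC50 taken as concentration giving half the control gray value, read from bands or from a fitted concentration–gray value curve.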

Row | DC50 (ER protein [1]) | pIC50 (MCF-7 cell line) | DC50 (ER protein [2]) | SMILES
1 | < 10 nM | 9.12 | < 10 nM | Cc1ncsc1-c1ccc(CNC(=O)[C@@H]2C[C@@H](O)CN2C(=O)[C@@H](NC(=O)CCCCCCCC(=O)NCCOc2ccc(C(=C(CCCl)c3ccccc3)c3ccc(O)cc3)cc2)C(C)(C)C)cc1 [SIAIS208035, N1-(2-(4-(4-chloro-1-(4-hydroxyphenyl)-2-phenylbut-1-en-1-yl)phenoxy)ethyl)-N9-((S)-1-((2S,4R)-4-hydroxy-2-((4-(4-methylthiazol-5-yl)benzyl)carbamoyl)pyrrolidin-1-yl)-3,3-dimethyl-1-oxobutan-2-yl)nonanediamide]
2 |  | 9.12 | < 1 nM | CCC(=C(c1ccc(O)cc1)c1ccc(OCCNC(=O)CCCCCCCCC(=O)N[C@H](C(=O)N2C[C@H](O)C[C@H]2C(=O)NCc2ccc(-c3scnc3C)cc2)C(C)(C)C)cc1)c1ccc(O)cc1 [SIAIS208168, N1-(2-(4-(1,2-bis(4-hydroxyphenyl)but-1-en-1-yl)phenoxy)ethyl)-N10-((S)-1-((2S,4R)-4-hydroxy-2-((4-(4-methylthiazol-5-yl)benzyl)carbamoyl)pyrrolidin-1-yl)-3,3-dimethyl-1-oxobutan-2-yl)decanediamide]
3 |  | 8.44 | < 10 nM | CCC(=C(c1ccc(O)cc1)c1ccc(OCCNC(=O)CCOCCOCCC(=O)N[C@H](C(=O)N2C[C@H](O)C[C@H]2C(=O)NCc2ccc(-c3scnc3C)cc2)C(C)(C)C)cc1)c1ccc(O)cc1 [SIAIS208173, (2S,4R)-1-((S)-16-(4-(1,2-bis(4-hydroxyphenyl)but-1-en-1-yl)phenoxy)-2-(tert-butyl)-4,13-dioxo-7,10-dioxa-3,14-diazahexadecanoyl)-4-hydroxy-N-(4-(4-methylthiazol-5-yl)benzyl)pyrrolidine-2-carboxamide]
4 |  | 8.38 | < 10 nM | Cc1ncsc1-c1ccc(CNC(=O)[C@@H]2C[C@@H](O)CN2C(=O)[C@@H](NC(=O)CCCCCCC(=O)N2CCN(CCOc3ccc(C(=C(CCCl)c4ccccc4)c4ccc(O)cc4)cc3)CC2)C(C)(C)C)cc1 [SIAIS251045, (2S,4R)-1-((S)-2-(8-(4-(2-(4-(4-chloro-1-(4-hydroxyphenyl)-2-phenylbut-1-en-1-yl)phenoxy)ethyl)piperazin-1-yl)-8-oxooctanamido)-3,3-dimethylbutanoyl)-4-hydroxy-N-(4-(4-methylthiazol-5-yl)benzyl)pyrrolidine-2-carboxamide]
5 |  | 6.06 |  | CN(C)CCOc1ccc(/C(=C(/CCCl)c2ccccc2)c2ccccc2)cc1 [Toremifene, reference compound]
